Data on two molecules can be found in patent US8466160B2, “Identification of non-small cell lung carcinoma (NSCLC) tumors expressing PDGFR-alpha” (priority 2005, dated 2013).

Where a name gives a salt, the structure may show the parent alone.

The test system of test [1] is AKT phosphorylation. Put plainly: IHC of AKT phosphorylation in xenograft tumors. In kind it is in vivo, mice. Particulars: treated vs control tumors, FIG. 11. The protocol: (§1) In this model, human cell lines are injected into immune-compromised mice forming xenograft tumors that resemble human tumors including vascularization and other features found in human tumors. The mice are then administered the drug in the same manner as in human patients. Tumor size may be monitored visually during drug treatment and the tumors may be removed, fixed and analyzed by standard IHC procedures or lysed and analyzed by Western blot.

In test [2] the test system is A549 cell line. Put plainly: MTT cell proliferation assay, A549. The class given is cell-based, human. (Tetrazolium dyes change colour on reduction, which living cells bring about.)
The test system of test [3] is A549 cell line. Particulars: Mol. Cancer 2003, not reproduced by the inventors; cited from earlier work.
Test [4] concerns PDGFRα-expressing human NSCLC tumors (H1703) xenografts. Put plainly: Tumor size in mouse xenografts of PDGFRα-expressing human NSCLC tumors. The class given is in vivo, mice. The protocol:
This hypothesis was tested using mouse xenografts derived from the H1703 cell line.
as §1
A general note: In xenograft studies the graft and the host belong to different species.

Test [5] relates to PDGFRα phosphorylation. Put plainly: Western blot of PDGFRα phosphorylation in H1703 cells. The class given is cell-based, human. The note with it: dose response, FIG. 9(b). A general note: A western blot detects proteins with antibodies after separation by electrophoresis.
The subject of test [6] is PDGFRα phosphorylation. Put plainly: Western blot / IHC of PDGFRα phosphorylation in xenograft tumors. The class given is in vivo, mice. The protocol: as §1
The test system of test [7] is H1373 cell line. Put plainly: MTT cell proliferation assay, H1373. In kind it is cell-based, human.
Test [8] deals with AKT phosphorylation. Put plainly: Western blot of AKT phosphorylation in H1703 cells. In kind it is cell-based, human. The protocol:
(§2) Phosphorylation of the EGFR receptor, ERK and AKT were determined while total PDGFRα and ERK1/2 are included as loading controls. […] AKT is thought to be the primary driver of cell survival (see Franke, Cell 88: 435-437 (1997)).

Test [9] has as its system H1703 cell line. Put plainly: MTT cell proliferation assay, H1703. The class given is cell-based, human. The note with it: concentrations similar to K562 (0.1 μM).
For test [10], the system named is K562 cell line. Put plainly: MTT cell proliferation assay, K562. In kind it is cell-based.
Test [11] has as its system ERK phosphorylation. Put plainly: Western blot of ERK phosphorylation in H1703 cells. The note with it: FIG. 9(a). The class given is cell-based, human. How it is done:
as §2

`Cc1ccc(NC(=O)c2ccc(CN3CCN(C)CC3)cc2)cc1Nc1nccc(-c2cccnc2)n1` [Gleevec®, Imatinib mesylate]: the “effect on AKT phosphorylation in xenograft tumors (IHC)” value in test [1] was “decrease”. In addition, in [2], the “concentration up to which cell growth was not affected (MTT)” value is over 10 µM. In test [3], the “growth of A549 cell line as reported by Zhang et al.” value is “growth inhibition”. Also, the “average tumor diameter in treated mice” value in [4] (3 treated mice, control approximately 190 mm) is listed as “approximately 20 mm”. For the same molecule, the “effect on tumor size” value in test [4] (xenograft, FIG. 10(a)) was “significant decrease in tumor size”. Further, the “lowest dose that inhibits PDGFRα phosphorylation” value in test [5] worked out at 0.01 µM. In test [6] (treated vs control tumors, FIG. 11), the “effect on PDGFRα phosphorylation in xenograft tumors (IHC)” value is on record as “decrease”. For the same molecule, the “effect on PDGFRα phosphorylation in xenografts (Western blot)” value in [6] (tumor lysate, 4 treated mice vs one control) is “inhibiting PDGFRα phosphorylation”. The “sensitivity of cell growth to Gleevec (MTT)” value in [7] is “insensitive”; in test [9], “sensitive”. In addition, the “effect on AKT phosphorylation” value in [8] (Western blot, FIG. 9(a)) was “loss of AKT phosphorylation”. Moreover, the “dose that greatly inhibits AKT phosphorylation” value in test [8] (dose response, FIG. 9(b)) came to 0.1 µM. In [10], the “concentration at which cell line is sensitive (MTT)” value was 0.1 µM.
For `COc1cc2ncnc(Nc3ccc(F)c(Cl)c3)c2cc1OCCCN1CCOCC1` [Iressa™], in [11], the “effect on ERK phosphorylation” value is given as “decreases”.
